The results in this text go back to patent publication US20230382934A1, “HIGH ENTROPY OXIDES AND METHODS OF SYNTHESIS AND USE THEREOF” (Auburn University, priority 2022, published 2023).

Assay [1] is described as follows: T1-weighted relaxivity response to H2O2, 3 T clinical MRI scanner. Conditions: Example 1, Mn(II) complex with H4qp4. As to the method:
The relaxivities of complex 1 before and during its reaction with H2O2 were assessed using a 3 T MRI scanner (FIG. 27D). T1 values were measured for aqueous solutions containing 0-1.0 mM 1 and 50 mM HEPES buffered to pH 7.00. For each concentration of 1, an oxidized sample was also prepared by adding 10 mM H2O2; the large excess of oxidant was used to ensure as full a turn-on as possible at the timepoints and to facilitate comparisons to manganese-containing MRI contrast agents that were previously prepared and characterized. The T1 values for the H2O2-containing solutions were measured 1 h and 2 h after the reagents were initially mixed. Full series of data were collected for two independently prepared batches of 1 in order to confirm that the results were replicable.
The MRI properties of 1 were assessed using methods that were previously employed in studies of manganese-containing MRI contrast agents. The relaxivity of 1 was measured before and after its reaction with excess H2O2 using a 3 T MRI scanner (FIG. 51). The r1 for the pre-activated complex was calculated from the T1 values of aqueous solutions containing 50 mM HEPES buffered to pH 7.00 and 0-1 mM 1. T1 measurements were also acquired for oxidized samples that contained 10 mM H2O2 in addition to the aforementioned reagents. The T1 values were measured 30 min and 60 min after the solution samples were initially prepared. […]

Assay [2] in a line: Catalase activity (degradation of H2O2, absorbance at 240 nm). Conditions: Mn(II) complex, 100 nM, 10 mM H2O2, 100 mM phosphate pH 7.0. Type of assay: biochemical. As to the method: FIG. 31 depicts representative kinetic traces for the reaction between 100 nM 1 and 10 mM H2O2 in 100 mM phosphate solution buffered to pH 7.0. The absorbance at 240 nm was monitored over time. Activity values were calculated using the UV-1601PC Kinetics program and converted to an initial rate (vo/[1]T) using the following equation: vo/[1]T=(activity)/[60 s×[…]×0.0000394 μM^−1 cm^−1×1.0 cm].
FIG. 66 depicts representative kinetic traces for the reaction between 100 nM 1 and 10 mM H2O2 in 200 mM phosphate solution buffered to pH 7.0. The absorbance at 240 nm was monitored over time. Activity values were calculated using the UV-1601PC Kinetics program and converted to an initial rate (vo/[1]T) using the following equation: vo/[1]T=(activity)/[60 s×0.1 μM×0.0000394 μM^−1 cm^−1×1.0 cm]
FIG. 67, comprising FIG. 67A and FIG. 67B, depicts a Michaelis-Menten fit of the activity of 1. FIG. 67A depicts activity of 1 with increasing concentrations of H2O2. All reactions were performed in 200 mM phosphate buffered to pH 7.0 at 25° C. with an initial 100 nM concentration of 1. […]
In order to assess the ability of the Mn(II) complex to catalyze the degradation of H2O2, we reacted 100 nM 1 with 10 mM H2O2 in 100 mM phosphate solution buffered to pH 7.0 and monitored the absorbance at 240 nm over time. […] The consumption of H2O2 was evaluated using a UV-1601 Shimadzu spectrophotometer.

Turning to “(1,8-Bis(2,5-dihydroxybenzyl)-1,4,8,11tetraazacyclotetradecane)manganese(II) triflate [Complex 1]”, the “increase in r1 upon oxidation by H2O2” value in assay [1] is 130%. Moreover, in assay [2], the “initial rate vo/[1]T” value was 6600 s⁻¹.
